Source: patent US20130039928A1, “COMPOSITIONS AND METHODS FOR REVERSING CORTICOSTEROID RESISTANCE OR TREATING RESPIRATORY INFECTIONS” (priority 2010, published 2013)
“Also recorded” adds a separate entry of the source.

Experiments:
[1] = test system: secretory leukocyte protease inhibitor (SLPI); settings: alveolar macrophages of patients with COPD, treated with or without sulforaphane
Description: Human alveolar macrophages were purified from individual BAL samples by centrifugation and seeded onto 6-well tissue culture plates. After incubation for 2 h, non-adherent cells were removed and the adherent cells were incubated with R, S-sulforaphane (5 μM; LKT Laboratories, Inc., St. Paul, Minn.) and or DMSO in RPMI 1640 culture medium with 10% FBS and 1% penicillin-streptomycin (Invitrogen, Carlsbad, Calif.). After 16-20 h, adherent cells were scraped, suspended in RPMI 1640 culture media and plated onto 96-well tissue culture plates for bacterial phagocytosis and clearance assays. […] For MARCO antibody-depletion, alveolar macrophages were incubated with human anti-MARCO antibody (1 μg/ml; (Hycult, Uden, The Netherlands) for 4 hours prior to bacterial challenge.

MARCO = settings: alveolar macrophages from mice exposed to CS
Description: (§1) C57BL/6J mice were housed under controlled conditions for temperature and humidity, using a 12-hour light/dark cycle. At 8 weeks of age, mice were exposed to CS for (2.5 h/day for 5 days/week) for 1 week or 6 months using a machine that produces cigarette smoke (TE-10, Teague Enterprises) and reference cigarettes (2R4F) with a total suspended particle concentration of 250 mg/m^3 as previously described (T. E. Sussan et al., Proc Natl Acad Sci USA, (Dec. 22, 2008)). Following exposure to CS, mice were inoculated with PA or NTHI at a dose of 10^3 CFU in 50 μl of PBS intranasally. For sulforaphane administration (0.5 mg/mouse of R, S-sulforaphane in PBS), a nebulizer (Aerogen, Inc., Galway, Ireland) designed specifically for small animals was used.

Pseudomonas aeruginosa = settings: alveolar macrophages from mice exposed to CS, ex vivo
Description: After treatment, macrophages (10^5 cells) were incubated with bacteria (PA or NTHI) for 4 h. Subsequently, 100 μL of cell free culture medium was aseptically plated and cultured on tryptose blood and or chocolate agar plates at 37° C. The number of bacterial colonies was counted after 24 h.
Bacterial phagocytosis was quantified using a flow cytometry analysis.
as §1

HDAC2 [2] = assay type: cell-based, human; settings: COPD alveolar macrophages
Description: For inducing corticosteroid resistance, PMs were exposed to cigarette smoke condensate (CSC, 100 μg/ml; Murty Pharmaceuticals, Lexington, Ky.) for 16 h. Exposure to S-nitrosoglutathione (GSNO, 10 μM) was limited to 4 h. […] For assessing corticosteroid responsiveness, macrophages were incubated with dexamethasone (1 μM, Sigma) for 1 h followed by LPS (100 ng/ml, Sigma) for additional 4 h.
All immunoblots were performed by using protocols as described previously (Barnes, P. J., N Engl J Med 343, 269-280 (2000)). Rabbit anti-HDAC2 antibody from Santa Cruz Biotechnology (Santa Cruz, Calif.) was used at 1:500 dilutions. Rabbit anti-5-nitroso-cysteine antibody from Alpha diagnostics was used at 1:500 dilutions. Rabbit anti-nitro-tyrosine antibody from Cell Signaling Technology, was used at 1:250 dilution. Rabbit anti-ubiquitin antibody from Santa Cruz Biotechnology (Santa Cruz, Calif.) was used at 1:1000 dilutions. Rabbit anti-GR antibody from Santa Cruz Biotechnology (Santa Cruz, Calif.) was used at a dilution of 1:1000. Rabbit anti-MMP9 antibody from Sigma Aldrich was used at 1:500 dilutions. Rabbit anti-acetyl-lysine antibody from Abcam was used at 1:750 dilutions. Rabbit anti-lamin-B1 from Santa Cruz Biotechnology (Santa Cruz, Calif.) was used at 1:1000 dilutions as a loading control. The Image J program was used for densitometry analyses.
Total RNA was extracted from the cells by lysis and specific binding to a silica membrance (Qiagen RNeasy kit, Qiagen, Valencia, Calif.), and qRT-PCR was performed by using primers and probe sets for human IL-8, NQO1, GCLM, and iNOS (Assay-on-Demand, Applied Biosystems, Foster City, Calif.). A real-time fluorescent PCR system (ABI 7000 Taqman system, Applied Biosystems) was used to perform these assays. β-actin was used as the normalization control.

HDAC2 [3] = assay: Posttranslational modification of HDAC2 in alveolar macrophages (immunoblot, DAN, biotin-switch); assay type: cell-based, human
Description: S-nitrosylation of proteins was analyzed by anti-SNO antibody, biotin switch assay, and or 2,3-diaminonapthalene (DAN) assay. […] Detail methodology is described in supplementary data.
Macrophage cell or lung tissue extracts were prepared by using 100 μL of immunoprecipitation buffer (50 mM Tris-HCl, pH 8.0, 150 mM NaCl, 1.0% Triton X-100, 0.5% NP-40, 0.1% SDS, 0.5% deoxycholate, and complete protease inhibitor cocktail) from Roche (Morristown, N.J.). The lysis mixture was incubated on ice for 15 minutes and microcentrifuged for 10 minutes at 4° C. Extracts were precleared with 20 μL protein A/G sepharose beads (a 50:50 mix) from Thermo scientific (Rockford, Ill.) and 2 μg of normal IgG. After microcentrifugation, 20 μL of protein A/G sepharose conjugated with 5 μg of antibody was used to precipitate HDAC2 (Santa Cruz Biotechnology, Santa Cruz, Calif.) overnight at 4° C. with rotation. The immune complexes were pelleted with gentle centrifugation, washed twice with 1 mL of immunoprecipitation buffer, and divided equally for the final wash for the activity assay and immunoblotting. For the HDAC assay, immunoprecipitates were resuspended in the activity assay buffer (50 mM TrisHCl, pH 8.0; 10% glycerol; 1 mM dithiothreitol; 0.1 mM EDTA, complete protease inhibitor cocktail). For HDAC2-specific western blotting, immune complexes were washed three times with the immunoprecipitation buffer and finally resuspended in Laemmli buffer for the SDS-PAGE.
For HDAC2-specific nitrosylation detection, cells were lysed in buffer (50 mM Tris-HCl, pH 8.0, 150 mM NaCl, 1% Nonidet P-40, 0.5% deoxycholic acid, 0.1% SDS). […] The pellets were resuspended in 500 μL of PBS.
This assay was performed in the dark.
The Image J program was used for densitometry analyses.

[4] = GSNO-exposed alveolar macrophages
[5] = nuclear immunopurified HDAC2, compared with vehicle

For `C[S+]([O-])CCCCN=C=S` (stereo not shown) [sulforaphane], the “SLPI levels in cell free media” value [1] was “greater levels of SLPI”, the MARCO expression (MARCO) was “increased MARCO expression” and the “bacterial phagocytic ability and clearance” value (Pseudomonas aeruginosa) was “increased bacterial phagocytic ability and clearance”. The “HDAC2 mRNA levels” value (HDAC2 [2]) was “without altering the levels of HDAC2 mRNA; also recorded: no effect on HDAC2 mRNA expression”, the HDAC2 protein levels (HDAC2 [2]) was “up-regulated HDAC2 protein levels” and the “S-nitrosylation of HDAC2” value (HDAC2 [3]; 2,3-diaminonaphthalene and biotin-switch assays) was “reduced”. The “levels of NO-Tyr HDAC2” value (HDAC2 [3]; [4]) was “decreased the levels of both NO-Tyr HDAC2 and SNO-HDAC2”, the “levels of SNO-HDAC2” value (HDAC2 [3]; [4]) was “decreased the levels of both NO-Tyr HDAC2 and SNO-HDAC2” and the “ability to reduce the levels of SNOHDAC2 protein” value (HDAC2 [3]; GSNO-exposed alveolar macrophages in the presence of buthionine sulfoximine) was “ablated”. For the same compound, the “S-nitrosylation of HDAC2 (SNO-HDAC2)” value (HDAC2 [3]; anti-SNO antibody immunoblot) was “significantly reduced”, the “tyrosine nitration of HDAC2 (nitrotyrosine-HDAC2)” value (HDAC2 [3]; immunopurified HDAC2 from alveolar macrophages, compared with vehicle) was “Significant reductions” and the “serine phosphorylation of HDAC2” value (HDAC2 [3]; [5]) was “Significant reductions”. The “ubiquitination of HDAC2” value (HDAC2 [3]; [5]) was “Significant reductions”.
